Measurements from ChEMBL document CHEMBL1201862, “PubChem BioAssay data set” (2004).
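Values below derive from 48-hour exposures of cells grown in 96-well plates, with endpoints linearly interpolated between the two concentrations bracketing the appropriate inhibition level. Abbreviation: GI50, concentration required for 50% inhibition of growth.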 The source made the active and inactive calls. No stated cut-off is given here; in the data, active = GI50 up to about 1.1 µM and inactive = higher.

What was measured:
Experiment in all cases: NCI anticancer screen, dose series, 48 h
[1] = system: 786-0
[2] = system: A498
[3] = system: A549
[4] = system: ACHN
[5] = system: BT-549
[6] = system: CAKI-1
[7] = system: CCRF-CEM
[8] = system: COLO 205
[9] = system: DU-145
[10] = system: EKVX
[11] = system: HCC 2998
[12] = system: HCT-116
[13] = system: HCT-15
[14] = system: HL-60
[15] = system: HOP-62
[16] = system: HOP-92
[17] = system: HT-29
[18] = system: Hs-578T
[19] = system: IGROV-1
[20] = system: K562
[21] = system: KM12
[22] = system: LOX IMVI
[23] = system: M14
[24] = system: MCF7
[25] = system: MDA-MB-231
[26] = system: MDA-MB-435
[27] = system: MDA-N
[28] = system: MOLT-4
[29] = system: Malme-3M
[30] = system: NCI-H226
[31] = system: NCI-H23
[32] = system: NCI-H460
[33] = system: NCI-H522
[34] = system: NCI/ADR-RES
[35] = system: OVCAR-3
[36] = system: OVCAR-4
[37] = system: OVCAR-5
[38] = system: OVCAR-8
[39] = system: PC-3
[40] = system: RPMI-8226
[41] = system: RXF 393
[42] = system: SF-268
[43] = system: SF-295
[44] = system: SF-539
[45] = system: SK-MEL-28
[46] = system: SK-MEL-2
[47] = system: SK-MEL-5
[48] = system: SK-OV-3
[49] = system: SN12C
[50] = system: SNB-19
[51] = system: SNB-75
[52] = system: SR
[53] = system: SW-620
[54] = system: T47D
[55] = system: TK-10
[56] = system: U-251
[57] = system: UACC-257
[58] = system: UACC-62
[59] = system: UO-31

Q: `O=[N+]([O-])c1ccc(NC(=S)Nc2ccccn2)cc1` was tested. Which GI50 [1] did it give?
A: 16.8 µM (inactive)

Q: And the GI50 [2]?
A: 12.8 µM (inactive)

Q: And the GI50 [3]?
A: 19.1 µM (inactive)

Q: What about the GI50 [4] of the same molecule?
A: 34.1 µM (inactive)

Q: And the GI50 [5]?
A: > 92.3 µM (inactive)

Q: What about the GI50 [6] of the same molecule?
A: 5.11 µM (inactive)

Q: What about the GI50 [7] of the same molecule?
A: > 64.4 µM (inactive)

Q: What about the GI50 [8] of the same molecule?
A: 18.5 µM (inactive)

Q: And the GI50 [9]?
A: 7.5 µM (inactive)

Q: What about the GI50 [10] of the same molecule?
A: 8.45 µM (inactive)

Q: And the GI50 [11]?
A: > 100 µM (inactive)

Q: And the GI50 [12]?
A: 11.9 µM (inactive)

Q: What about the GI50 [13] of the same molecule?
A: 18.8 µM

Q: And the GI50 [14]?
A: 14 µM (inactive)

Q: What about the GI50 [15] of the same molecule?
A: 17.3 µM (inactive)

Q: And the GI50 [16]?
A: 72.4 µM (inactive)

Q: And the GI50 [17]?
A: 31.7 µM (inactive)

Q: What about the GI50 [18] of the same molecule?
A: 13.8 µM (inactive)

Q: And the GI50 [19]?
A: 11.9 µM (inactive)

Q: And the GI50 [20]?
A: > 69.2 µM (inactive)

Q: And the GI50 [21]?
A: 10.3 µM (inactive)

Q: What about the GI50 [22] of the same molecule?
A: 16.4 µM (inactive)

Q: And the GI50 [23]?
A: 46.8 µM (inactive)

Q: What about the GI50 [24] of the same molecule?
A: 12.4 µM (inactive)

Q: And the GI50 [25]?
A: 40.3 µM (inactive)

Q: What about the GI50 [26] of the same molecule?
A: 20.8 µM (inactive)

Q: And the GI50 [27]?
A: 91.8 µM (inactive)

Q: And the GI50 [28]?
A: 16.9 µM (inactive)

Q: And the GI50 [29]?
A: 72.9 µM (inactive)

Q: And the GI50 [30]?
A: 22.7 µM (inactive)

Q: What about the GI50 [31] of the same molecule?
A: 63.4 µM (inactive)

Q: What about the GI50 [32] of the same molecule?
A: 23.3 µM (inactive)

Q: And the GI50 [33]?
A: 31.8 µM (inactive)

Q: And the GI50 [34]?
A: 33.4 µM (inactive)

Q: And the GI50 [35]?
A: 18.6 µM (inactive)

Q: And the GI50 [36]?
A: 37.5 µM (inactive)

Q: And the GI50 [37]?
A: 27.7 µM (inactive)

Q: And the GI50 [38]?
A: 31.5 µM (inactive)

Q: What about the GI50 [39] of the same molecule?
A: 40.6 µM (inactive)

Q: And the GI50 [40]?
A: > 100 µM (inactive)

Q: What about the GI50 [41] of the same molecule?
A: 4.68 µM (inactive)

Q: And the GI50 [42]?
A: 26.9 µM (inactive)

Q: And the GI50 [43]?
A: 27.4 µM (inactive)

Q: What about the GI50 [44] of the same molecule?
A: 8.63 µM (inactive)

Q: What about the GI50 [45] of the same molecule?
A: > 95.3 µM (inactive)

Q: What about the GI50 [46] of the same molecule?
A: > 53.1 µM (inactive)

Q: What about the GI50 [47] of the same molecule?
A: 43.3 µM (inactive)

Q: What about the GI50 [48] of the same molecule?
A: 47 µM (inactive)

Q: What about the GI50 [49] of the same molecule?
A: 37.2 µM (inactive)

Q: And the GI50 [50]?
A: 57.3 µM (inactive)

Q: And the GI50 [51]?
A: 18 µM (inactive)

Q: And the GI50 [52]?
A: 5.28 µM (inactive)

Q: And the GI50 [53]?
A: 40.3 µM (inactive)

Q: And the GI50 [54]?
A: 35.7 µM (inactive)

Q: What about the GI50 [55] of the same molecule?
A: 31.3 µM (inactive)

Q: What about the GI50 [56] of the same molecule?
A: 24.3 µM (inactive)

Q: And the GI50 [57]?
A: 64.4 µM (inactive)

Q: What about the GI50 [58] of the same molecule?
A: 19.9 µM (inactive)

Q: And the GI50 [59]?
A: 26.2 µM (inactive)
